Drawing on US20250206738A1, “WRN INHIBITORS” (Nimbus Wadjet, Inc., priority 2023, published 2025), this text covers IC50 for 13 molecules.

SMILES strings stand for the structures. Some results are limits rather than exact numbers.

The target of the assay is T1, human Werner helicase (WRN, Uniprot Q14191, amino acids 517-1235 with L1074F point mutation; WRN-BV08) (Homo sapiens, UniProt Q14191, L1074F).
T1 construct: Uniprot Q14191, amino acids 517-1235 with L1074F point mutation; 8xHis (C, cleaved yes); TEV cleavage site (ENLYFQG) (C, cleaved yes); made in house; host or cells: Sf9 insect cells (baculovirus, pFastBac)
T1 sequence (Q14191 with tags, fused parts or gaps L1074F): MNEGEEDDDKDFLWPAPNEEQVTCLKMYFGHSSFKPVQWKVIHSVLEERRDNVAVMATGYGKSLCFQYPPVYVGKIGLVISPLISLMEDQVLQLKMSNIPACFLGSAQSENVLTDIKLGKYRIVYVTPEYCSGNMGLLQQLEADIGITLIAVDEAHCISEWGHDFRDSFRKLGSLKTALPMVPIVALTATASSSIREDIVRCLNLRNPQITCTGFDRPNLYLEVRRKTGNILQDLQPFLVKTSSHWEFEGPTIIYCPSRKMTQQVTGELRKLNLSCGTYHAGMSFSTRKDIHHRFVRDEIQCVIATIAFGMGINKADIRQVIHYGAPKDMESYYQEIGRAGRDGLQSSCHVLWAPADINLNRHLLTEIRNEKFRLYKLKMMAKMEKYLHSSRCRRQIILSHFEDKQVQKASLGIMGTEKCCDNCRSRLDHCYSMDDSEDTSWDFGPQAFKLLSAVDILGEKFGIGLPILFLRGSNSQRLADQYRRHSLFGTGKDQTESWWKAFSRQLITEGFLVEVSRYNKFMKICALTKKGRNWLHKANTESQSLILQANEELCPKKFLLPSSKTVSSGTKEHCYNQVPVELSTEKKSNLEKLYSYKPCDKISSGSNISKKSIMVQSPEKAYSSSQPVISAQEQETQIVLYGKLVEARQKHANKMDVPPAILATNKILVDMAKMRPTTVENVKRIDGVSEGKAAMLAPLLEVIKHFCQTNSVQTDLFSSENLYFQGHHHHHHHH
Put plainly: WRN (BV08) ADP-Glo assay. Format: biochemical. The settings on record: WRN-BV08 (aa 517-1235, L1074F); read-out: ADP-Glo_hWRN_IC50. The source says: Example 2: WRN (BV08) ADP-Glo Assay Protocol
Bovine skin gelatin (BSG), dimethyl sulfoxide (DMSO), Pluronic F-127 and tris(2-carboxyethyl)phosphine hydrochloride solution (TCEP) were purchased from Sigma-Aldrich (St. Louis, MO) at the highest level of purity possible. Bicine buffer solution was purchased from Alfa Aesar (Tewksbury, MA) and compound NSC-617145 was purchased from Tocris (Minneapolis, MN). DNA duplex was synthesized at BGI (Shenzhen, China) and was composed of strand 1 with the sequence 5′-[…]-3′ (SEQ ID NO.: 1) and strand 2 with the sequence 5′-[…]-3′ (SEQ ID NO.: 2). DNA strands were annealed by heating to 95° C. for 5 minutes followed by slow cooling to room temperature. Compounds in 100% DMSO ([…]) were spotted into a 384-well white polystyrene Optiplate-384 (Perkin Elmer; Waltham, MA) assay plate using a LabCyte Echo 550 (Agilent; Santa Clara, CA). DMSO ([…]) was added to columns 12, rows A-H and column 24, rows I-P for the maximum signal control. Compound NSC-617145 ([…]) was added to columns 12, rows I-P and 24, rows A-H for the minimum signal control (100% inhibition). Compounds/DMSO were preincubated for 15 minutes at 25° C. with […] 2×WRN (BV08), prepared as described below, in assay buffer containing 20 mM Bicine (pH=7.5), 1 mM MgCl2, 10 mM KCl, 0.1% Pluronic F-127, 0.005% BSG, 1 mM TCEP. The reaction was initiated by the addition of […] 2× substrate mixture in assay buffer and incubated for 60 minutes at 25° C. The final concentrations of the assay components were 0.15 nM WRN, […], and 0.1 nM DNA duplex. The final DMSO concentration was 1% and the reference compound concentration (NSC-617145) used for the minimal signal control was […]. The reaction was stopped by the addition of the ADP-Glo Kit components (Promega; Madison, WI) as directed and the relative luminescence units (RLU) were read on an Envision 2104 (Perkin Elmer; Waltham, MA).
% Inhibition Calculation:
Where RLU=relative luminescence units, sample=signal in sample well, and MIN and MAX are the respective minimum and maximum signal controls.
Four-Parameter IC50 Fit Equation:
Where top and bottom are normally allowed to float but may be fixed at 100 or 0 respectively in a 3-parameter fit. Y is the % inhibition and X is the compound concentration.
Molecular Biology and virus production. The DNA encoding human Werner helicase (Uniprot Q14191, amino acids 517-1235 with L1074F point mutation) was generated with codon-optimization for […] expression and subcloned into the pFastBac vector with a TEV cleavable 8×His tag (SEQ ID NO: 5) (WRN—BV08). The baculovirus from the expression plasmid WRN—BV08 was generated from transfection and amplification following the manufacturer's instructions.
Sf9 cells grown in SF900II media were infected with 1:200 WRN—BV08 P2 virus and incubated for protein expression for 72 h at 27° C. The WRN protein was purified using the following protocol. The cell pellets were thawed and resuspended in buffer A (50 mM Tris, pH 7.5, 500 mM NaCl, 1 mM TCEP, 10% Glycerol) supplemented with 0.5% CHAPS, 1 mM PMSF, 1 μg/ml Leupeptin, 1 μg/ml Pepstatin, and the Pierce Universal Nuclease and cocktail tablet. Cleared lysates were loaded onto a Ni Sepharose™ excel column and washed with buffer A and bound protein was eluted with buffer A supplemented with 300 mM imidazole. The eluted protein was dialyzed against buffer A and digested by His-tagged TEV (1:5 ratio) overnight at 4° C. ZnCl2 was added into the sample at final 15 μM before loading onto a second Ni Sepharose™ excel column. Untagged WRN protein was eluted from the column with buffer A supplemented with 20 mM imidazole, dialyzed overnight into buffer B (50 mM Tris, pH 7.5, 1 mM TCEP, 10% Glycerol) supplemented with 150 mM NaCl and loaded onto a Heparin column. Proteins were eluted with a step gradient of buffer B supplemented with 150 mM, 200 mM, 300 mM and 500 mM NaCl. […]
A general note: ADP-Glo turns the ADP formed in a reaction into a luminescent signal.
As for `CCc1c(N2CCN(C(=O)c3ncnc(C)c3O)[C@H]3CC[C@@H]32)c(=O)c2nn(-c3ccnc(OC)c3)cc2n1CC(=O)NC12CC(C3CC3)(C1)C2` [I-177, N-{3-cyclopropylbicyclo[1.1.1]pentan-1-yl}-2-{5-ethyl-6-[(1S,6S)-5-(5-hydroxy-6-methylpyrimidine-4-carbonyl)-2,5-diazabicyclo[4.2.0]octan-2-yl]-2-(2-methoxypyridin-4-yl)-7-oxo-2H,4H,7H-pyrazolo[4,3-b]pyridin-4-yl}acetamide], the IC50 is 0.005 to 0.05 µM.
Consider `CCc1c(N2CCN(C(=O)c3c(COC)cccc3OC)[C@H]3CC[C@@H]32)c(=O)c2nn(C3=CCOCC3)nc2n1CC(=O)NC12CC(C3CC3)(C1)C2` [I-199, N-{3-cyclopropylbicyclo[1.1.1]pentan-1-yl}-2-[2-(3,6-dihydro-2H-pyran-4-yl)-5-ethyl-6-[(1S,6S)-5-[2-methoxy-6-(methoxymethyl)benzoyl]-2,5-diazabicyclo[4.2.0]octan-2-yl]-7-oxo-2H,4H,7H-[1,2,3]triazolo[4,5-b]pyridin-4-yl]acetamide], for which the IC50 was in the range of 0.005 to 0.05 µM.
Regarding `CCc1c(N2CCN(C(=O)c3ncnc(C)c3O)[C@H]3CC[C@@H]32)c(=O)c2nn(-c3ccnc(OC)c3)nc2n1CC(=O)NC12CC(C3CCC3)(C1)C2` [I-80, N-{3-cyclobutylbicyclo[1.1.1]pentan-1-yl}-2-{5-ethyl-6-[(1S,6S)-5-(5-hydroxy-6-methylpyrimidine-4-carbonyl)-2,5-diazabicyclo[4.2.0]octan-2-yl]-2-(2-methoxypyridin-4-yl)-7-oxo-2H,4H,7H-[1,2,3]triazolo[4,5-b]pyridin-4-yl}acetamide], the IC50 was ≤ 0.005 µM.
With `CCc1c(N2CCN(C(=O)c3c(OC)ncc(C)c3O)CC2)c(=O)c2nn(-c3ccnc(OC)c3)nc2n1CC(=O)NC12CC(N3CCCC3)(C1)C2` [I-126, 2-{5-ethyl-6-[4-(4-hydroxy-2-methoxy-5-methylpyridine-3-carbonyl)piperazin-1-yl]-2-(2-methoxypyridin-4-yl)-7-oxo-2H,4H,7H-[1,2,3]triazolo[4,5-b]pyridin-4-yl}-N-[3-(pyrrolidin-1-yl)bicyclo[1.1.1]pentan-1-yl]acetamide], the IC50 was > 0.5 µM.
For `CCc1c(N2CCN(C(=O)c3ncnc(C)c3O)[C@H]3CC[C@@H]32)c(=O)c2nn(C3=CCOC(C)C3)nc2n1CC(=O)NC12CC(C3CC3)(C1)C2` (stereo partly drawn) [I-162, N-{3-cyclopropylbicyclo[1.1.1]pentan-1-yl}-2-{5-ethyl-6-[(1S,6S)-5-(5-hydroxy-6-methylpyrimidine-4-carbonyl)-2,5-diazabicyclo[4.2.0]octan-2-yl]-2-(2-methyl-3,6-dihydro-2H-pyran-4-yl)-7-oxo-2H,4H,7H-[1,2,3]triazolo[4,5-b]pyridin-4-yl}acetamide], the IC50 is 0.005 to 0.05 µM.
`CCc1c(N2CCN(C(=O)c3ncc4c(c3O)CCO4)CC2)c(=O)n2nc(C3=CCOCC3)nc2n1CC(=O)NC12CC(OC)(C1)C2` [I-12, 2-(2-(3,6-dihydro-2H-pyran-4-yl)-5-ethyl-6-(4-(4-hydroxy-2,3-dihydrofuro[2,3-c]pyridine-5-carbonyl)piperazin-1-yl)-7-oxo-[1,2,4]triazolo[1,5-a]pyrimidin-4(7H)-yl)-N-(3-methoxybicyclo[1.1.1]pentan-1-yl)acetamide]: the IC50 was > 0.5 µM.
Regarding `CCc1c(N2CCN(C(=O)c3ncnc(C)c3O)[C@H]3CC[C@@H]32)c(=O)c2nn(C3=CCOCC3)nc2n1CC(=O)NC1CC2(CCC2)C1` [I-185, 2-[2-(3,6-dihydro-2H-pyran-4-yl)-5-ethyl-6-[(1S,6S)-5-(5-hydroxy-6-methylpyrimidine-4-carbonyl)-2,5-diazabicyclo[4.2.0]octan-2-yl]-7-oxo-2H,4H,7H-[1,2,3]triazolo[4,5-b]pyridin-4-yl]-N-{spiro[3.3]heptan-2-yl}acetamide], the IC50 was in the range of 0.005 to 0.05 µM.
Take `CCc1c(N2CCN(C(=O)c3ncnc(C)c3O)[C@H]3CC[C@@H]32)c(=O)c2nn(C3=CCOCC3)nc2n1CC(=O)NC12CC(C(C)(C)C)(C1)C2` [I-184, N-{3-tert-butylbicyclo[1.1.1]pentan-1-yl}-2-[2-(3,6-dihydro-2H-pyran-4-yl)-5-ethyl-6-[(1S,6S)-5-(5-hydroxy-6-methylpyrimidine-4-carbonyl)-2,5-diazabicyclo[4.2.0]octan-2-yl]-7-oxo-2H,4H,7H-[1,2,3]triazolo[4,5-b]pyridin-4-yl]acetamide]: the IC50 was 0.005 to 0.05 µM.
Turning to `CCc1c(N2CCN(C(=O)c3c(OC)ncc(F)c3O)[C@H]3CC[C@@H]32)c(=O)c2nn(-c3ccnc(OC)c3)nc2n1CC(=O)NC12CC(C(C)C)(C1)C2` [I-166, 2-{5-ethyl-6-[(1S,6S)-5-(5-fluoro-4-hydroxy-2-methoxypyridine-3-carbonyl)-2,5-diazabicyclo[4.2.0]octan-2-yl]-2-(2-methoxypyridin-4-yl)-7-oxo-2H,4H,7H-[1,2,3]triazolo[4,5-b]pyridin-4-yl}-N-[3-(propan-2-yl)bicyclo[1.1.1]pentan-1-yl]acetamide], the IC50 was ≤ 0.005 µM.
`CCc1c(N2CCN(C(=O)c3ncnc(C)c3O)[C@H]3CCC[C@@H]32)c(=O)c2nn(C3=CCOCC3)nc2n1CC(=O)NC12CC(C3CC3)(C1)C2` [I-60, 2-{6-[(4aS,7aS)-4-(5-hydroxy-6-methylpyrimidine-4-carbonyl)-octahydro-1H-cyclopenta[b]pyrazin-1-yl]-2-(3,6-dihydro-2H-pyran-4-yl)-5-ethyl-7-oxo-2H,4H,7H-[1,2,3]triazolo[4,5-b]pyridin-4-yl}-N-{3-cyclopropylbicyclo[1.1.1]pentan-1-yl}acetamide]: the IC50 lay within 0.005 to 0.05 µM.
With `CCc1c(N2CCN(C(=O)c3ncnc(C)c3O)[C@H]3CC[C@@H]32)c(=O)c2nn(-c3ccn(C4CC4)n3)nc2n1CC(=O)NC12CC(C(C)C)(C1)C2` [I-78, 2-[2-(1-cyclopropyl-1H-pyrazol-3-yl)-5-ethyl-6-[(1S,6S)-5-(5-hydroxy-6-methylpyrimidine-4-carbonyl)-2,5-diazabicyclo[4.2.0]octan-2-yl]-7-oxo-2H,4H,7H-[1,2,3]triazolo[4,5-b]pyridin-4-yl]-N-[3-(propan-2-yl)bicyclo[1.1.1]pentan-1-yl]acetamide], the IC50 fell in the range of 0.005 to 0.05 µM.
As for `CCc1c(N2CCN(C(=O)c3ncc4c(c3O)CCO4)CC2)c(=O)n2nc(C3=CCOCC3)nc2n1CC(=O)NC12CC(C)(C1)C2` [I-5, 2-(2-(3,6-dihydro-2H-pyran-4-yl)-5-ethyl-6-(4-(4-hydroxy-2,3-dihydrofuro[2,3-c]pyridine-5-carbonyl)piperazin-1-yl)-7-oxo-[1,2,4]triazolo[1,5-a]pyrimidin-4(7H)-yl)-N-(3-methylbicyclo[1.1.1]pentan-1-yl)acetamide], the IC50 fell in the range of 0.05 to 0.1 µM.
As to `CCc1c(N2CCN(C(=O)c3c(F)cnc(OC)c3O)[C@H]3CC[C@@H]32)c(=O)c2nn(C3=CCOCC3)nc2n1CC(=O)NC12CC(C3CC3)(C1)C2` [I-172, N-{3-cyclopropylbicyclo[1.1.1]pentan-1-yl}-2-[2-(3,6-dihydro-2H-pyran-4-yl)-5-ethyl-6-[(1S,6S)-5-(5-fluoro-3-hydroxy-2-methoxypyridine-4-carbonyl)-2,5-diazabicyclo[4.2.0]octan-2-yl]-7-oxo-2H,4H,7H-[1,2,3]triazolo[4,5-b]pyridin-4-yl]acetamide], the IC50 is 0.005 to 0.05 µM.
